In publication PMC8307831, “Preparation of Monoclonal Antibody and Development of Indirect Competitive Enzyme-Linked Immunosorbent Assay and Fluorescence-Linked Immunosorbent Assay for Detecting 3-Amino-5-methylmorpholino-2-oxazolidinone (AMOZ) in Edible Animal Tissue” (Molecules, 2021):
≈ marks a conversion by molar mass, not a printed value.

Key:
mAb 5C10/3A8 [1] = assay: indirect competitive ELISA (ic-ELISA) with CPAMOZ-OVA coating antigen; assay type: binding, mouse; settings: for Cross-Reactivity: (IC50 of 2-NP-AMOZ / IC50 of compound tested) x 100%, 2-NP-AMOZ set to 100%; for IC50: mAb 5C10/3A8, competition with coating antigen CPAMOZ-OVA
Experimental: To carry out 2-NP-AMOZ ic-ELISA, 96-well plates were first coated with 100 μL of CPAMOZ-OVA in 50 mM of carbonate buffer solution (pH = 9.6) overnight at 4 °C. […] The plates were washed again three times, after which 50 μL of different concentrations of 2-NP-AMOZ analytes and 50 μL of the obtained mAb were added into each well, incubated at 37 °C for 1 h, and the plates were washed three times with the PBST. Subsequently, 100 μL of horseradish peroxidase-labeled goat anti-mouse IgG (1:10,000 dilution) was added to the wells and incubated at 37 °C for 1 h. This was followed by a washing step of three washes with PBST solution, after which 100 μL of substrate solution was added to each well and incubated for 15 min in darkness. The reaction was stopped by adding 50 μL/well of 2 M of H2SO4. The absorbance at 450 nm was measured on a Tecan Sunrise 2.5 microplate reader (SUNRISE, Austria). A calibration curve was constructed by plotting (B/B0) × 100% vs. log C, where B and B0 represent the absorbance of the analyte at the known concentrates (standards) and at zero concentration of the analyte, respectively.
The extent of cross-reactivity was evaluated by determining IC50 values using an ic-ELISA as described above. […] The concentration of the standard solutions of the compounds was set from 0.01 to 1000 ng/mL.

mAb 5C10/3A8 [2] = assay: QD-based fluorescence-linked immunosorbent assay (FLISA); assay type: binding; settings: 655 nm QDs-conjugated goat anti-mouse IgG
Experimental: The procedures for FLISA and ic-ELISA were identical before the secondary antibody was added. More specifically, after washing with PBST for three times, 100 μL of 655 nm QDs-conjugated goat anti-mouse IgG (1:10,000 dilution) was added to each well and incubated at 37 °C for 45 min. After three washes with PBST, a SpectraMax M2e Microplate Reader (Molecular Devices, San Jose, CA, USA) was used to measure the fluorescence signals from samples with excitation/emission at 360/655 nm. The fluorescence intensities were identified as B0 and B for the control and testing sample. The standard curve was established by plotting the form (B/B0) 100% against the 2-NP-AMOZ concentration.

monoclonal antibodies = test system: monoclonal antibodies; design: method as in not given; settings: published mAb-based homologous ic-ELISAs and fluoroimmunoassay; range over the literature; ref not given; cited from earlier work

| Compound | Cross-Reactivity (mAb 5C10/3A8 [1]) [%] | IC50 (mAb 5C10/3A8 [1]) [µg/mL] | IC50 (mAb 5C10/3A8 [2]) [ng/mL] | IC50 (monoclonal antibodies) [µg/mL] |
| --- | --- | --- | --- | --- |
| O=Cc1ccccc1[N+](=O)[O-] [2-NBA, 2-nitrobenzaldehyde] | <0.01 | >1 |  |  |
| O=C1CN(/N=C/c2ccc([N+](=O)[O-])o2)C(=O)N1 [Nitrofurantoin, nitrofurantoin] | <0.01 | >1 |  |  |
| O=C1OC(CN2CCOCC2)CN1/N=C/c1ccc([N+](=O)[O-])o1 (centres unmarked) [Furaltadone, furaltadone] | 8.9 | 0.00124 (≈ 0.00382 µM) |  |  |
| O=C1OC(CN2CCOCC2)CN1/N=C/c1ccccc1[N+](=O)[O-] (centres unmarked) [2-NP-AMOZ] | 100 | 0.00011 (≈ 0.000329 µM) | 0.09 (≈ 0.000269 µM) | 0.00014 to 0.0043 |
| O=C(O)c1ccc(/C=N/N2CC(CN3CCOCC3)OC2=O)cc1 (centres unmarked) [CPAMOZ, carboxyphenyl AMOZ] | 122.2 | 9e-05 (≈ 0.00027 µM) |  |  |
| NN1CC(=O)NC1=O [AHD, 1-aminohydantoin] | <0.01 | >1 |  |  |
| O=C1OCCN1/N=C/c1ccccc1[N+](=O)[O-] [2-NP-AOZ] | <0.01 | >1 |  |  |
| NN1CCOC1=O [AOZ, 3-amino-2-oxazolidinone] | <0.01 | >1 |  |  |
| O=C1CN(/N=C/c2ccccc2[N+](=O)[O-])C(=O)N1 [2-NP-AHD] | <0.01 | >1 |  |  |
| NN1CC(CN2CCOCC2)OC1=O (centres unmarked) [AMOZ, 3-amino-5-morpholinomethyl-2-oxazolidinone] | 10.7 | 0.00103 (≈ 0.00512 µM) |  | 0.00115 to 0.00533 |
| NNC(N)=O [SEM, semicarbazide] | <0.01 | >1 |  |  |
| O=Cc1ccc(C(=O)O)cc1 [4-CBA, 4-carboxybenzaldehyle] | <0.01 | >1 |  |  |
| NC(=O)N/N=C/c1ccc([N+](=O)[O-])o1 [Nitrofurazone, nitrofurazone] | <0.01 | >1 |  |  |
